Read-outs that look alike come from different tables or passages of the source. Where no end group is shown, it is not given here.

Consider two substances from publication PMC9841524, “Structure-Based Rational Design of Small α-Helical Peptides with Broad-Spectrum Activity against Multidrug-Resistant Pathogens” (Journal of Medicinal Chemistry, 2022).

One series has as its system S. aureus (ATCC 29213). The experiment in a line: MIC, standard microtiter dilution (CLSI). It counts as cell-based. The conditions noted are these: for MIC, S. aureus (ATCC 29213): broth microdilution (CLSI), CAMHB, 37 °C, 24 h. In outline:
(§1)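 Inoculum 10^6 CFU/mL in CAMHB against 2-fold peptide series; salt variants used 150 mM NaCl, 4.5 mM KCl, 6 mM NH4Cl, 1 mM MgCl2, 2 mM CaCl2, or 25% FBS.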
(Dilution methods test growth across graded concentrations, often in twofold steps.)

The next series deals with E. coli (ATCC 25922). The settings on record: broth microdilution (CLSI), CAMHB, 37 °C, 24 h. In short, it runs like this: as §1
The test system of the next series is MRSA (ATCC BAA-1556). The settings on record: broth microdilution (CLSI), CAMHB, 37 °C, 24 h. In outline:
as §1

The subject of series [1] is P. aeruginosa (ATCC 27883). The experiment in a line: MIC, standard microtiter dilution (CLSI). It counts as cell-based, Pseudomonas aeruginosa. The conditions noted are these: broth microdilution (CLSI), CAMHB, 37 °C, 24 h. In short, it runs like this: as §1
For series [2], the system named is K. pneumoniae (ATCCBAA-1705). Description: MIC, standard microtiter dilution (CLSI). Type of series: cell-based, Klebsiella pneumoniae. The conditions noted are these: broth microdilution (CLSI), CAMHB, 37 °C, 24 h. In short, it runs like this: as §1
Series [3] deals with human red blood cells (hRBCs). Description: Hemolytic assay. The settings on record: 2 h, 37 °C. Type of series: cell-based. In outline:
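Peptides in 2-fold serial dilutions mixed 1:1 with 4% hRBC suspension in PBS and held 2 h at 37 °C unshaken. Hemoglobin release in supernatant read at 567 nm; % hemolysis scaled between PBS (0%) and 1% Triton X-100 (100%).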

The nature of series [4]: Relative hydrophobicity as RP-HPLC retention time. Type of series: physicochemical. The settings on record: chromatographic, Phenomenex Luna C18 4 μm 150 × 4.6 mm, linear AB gradient 1% acetonitrile/min, 0.3 mL/min, A water 0.1% TFA, B acetonitrile 0.1% TFA, 25 °C. The method, then:
The purity analysis of the peptides was conducted on a RP-HPLC system (Shimadzu; LC-20ADXR) by using a Phenomenex (Luna) analytical C18 column (4 μm, 150 × 4.6 mm). The mass of the purified peptides was determined in the positive-ion mode using Q-TOF LC/MS (Compass Hystar 4.1, Bruker, USA). The purity (>95%) and mass data of all the synthesized peptides are provided in the Supporting Information.
8. Comparative Hydrophobicity analysis
The purity of all synthesized peptides was determined using reverse phase analytical HPLC
(Shimadzu; LC-20ADXR). Below mentioned are the conditions used to conduct the purity
Column: Phenomenex (Luna), 4 um, C18, 150 × 4.6 mm
Mobile Phase: Buffer A-Water containing 0.1% TFA,
Buffer B-Acetonitrile containing 0.1% TFA
Figure S52. HPLC chromatogram of 6a.
(1 picture or pasted object on this page, not shown here)

A short description of series [5]: CD spectroscopy, helicity.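 As to % of helicity induced by Liposomes: share of the total helicity with liposomes gained over the same peptide in PBS.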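 As to % of helicity induced by TFE: share of the total helicity in TFE gained over the same peptide in PBS.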 The settings on record: for [θ]222 mean residue molar ellipticity, TFE / [θ]222 mean residue molar ellipticity, Liposomes / [θ]222 mean residue molar ellipticity, PBS: CD at 222 nm, 25 °C; for [θ]222 mean residue molar ellipticity, TFE: aqueous buffer containing 50% TFE; for [θ]222 mean residue molar ellipticity, Liposomes / Δ[θ]222 induced by Liposomes: bacterial membrane mimicking liposomes; for [θ]222 mean residue molar ellipticity, Liposomes: peptide:lipid molar ratio 1:1.05; for [θ]222 mean residue molar ellipticity, PBS: phosphate buffer saline pH 7.0; for Δ[θ]222 induced by TFE / Δ[θ]222 induced by Liposomes: difference to PBS; for Δ[θ]222 induced by TFE: 50% TFE; for % of helicity induced by TFE: increase in molar ellipticity at 222 nm in the presence of 50% TFE; for % of helicity induced by Liposomes: increase in molar ellipticity at 222 nm in the presence of liposomes. Type of series: physicochemical. More on the design: key to Δ[θ]222 induced by TFE / Δ[θ]222 induced by Liposomes: mean residue molar ellipticity, mdeg cm2/(dmol × res). As to the method:
The CD spectra of peptides were recorded using a Jasco J-1500 CD spectrophotometer (Jasco, Easton, MD) at 25 °C with a 1 mm path length cell. Wavelengths from 190 to 260 nm were scanned with 1.0 nm step resolution, 100 nm/min speed, 0.4 s response time, and 1 nm bandwidth. CD spectra of the peptides were collected and averaged over three scans in 10 mM sodium phosphate buffer (pH 7.2), helix-inducing solvent 50% TFE (v/v), and bacterial mimic liposomes (75 μM lipid). Spectra were corrected by subtracting a baseline spectrum containing only buffer or 50% TFE or liposomes. The mean residue molar ellipticity was calculated using the formula [drawing 3] where Ab222 is the absorbance observed at 222 nm, MRW is the mean residue molecular weight, C is the concentration in mg/mL, and L is the path length.
Table S1. RP-HPLC retention times and CD spectroscopy analysis of the selected peptides Peptide tR (min)a [θ]222b Δ[θ]222 induced by % of helicity inducedc by PBS TFE Liposomes TFE Liposomes TFE Liposomes […]
atR (min) denotes the retention time at 25°C by RP-HPLC. bThe mean residue molar ellipticity [θ] 222 (mdeg cm2/(dmol × res)) at 222 nm was measured at 25 °C in phosphate buffer saline (PBS, pH 7.0), in aqueous buﬀer containing 50% TFE (TFE), or in presence of bacterial membrane mimicking liposomes (peptide:lipid […]
c% helix induced is the increase in the molar ellipticity at 222 nm (in percentage) of a peptide in the presence of TFE or liposomes.

[6] abbreviates: 10^6 CFU/mL, highest MIC of three independent experiments in triplicate.
Where [7] appears, read: hRBC suspension 4% in PBS, hemoglobin release at 567 nm, 1% Triton X-100 = 100%.
Setting [8] is: value in parentheses (μM), hRBC 4% in PBS, 567 nm.

RWARRWARWWRR-NH2 [6a]: the “MIC against S. aureus” value in the series on S. aureus (ATCC 29213) is 50 µg/mL. In addition, the figures for the “MIC, S. aureus (ATCC 29213)” value in the series on S. aureus (ATCC 29213) (setting [6]) and with S. aureus (ATCC 29213) (value in parentheses (μM)) were 50 µg/mL and 27.16 µM, respectively. Besides, the “MIC, E. coli (ATCC 25922)” value in the series on E. coli (ATCC 25922) (setting [6]) is greater than 100 µg/mL; with E. coli (ATCC 25922) (value in parentheses (μM)) it was greater than 54.31 µM. Also, the “MIC, MRSA (ATCC BAA-1556)” value with MRSA (ATCC BAA-1556) (setting [6]) was determined as 50 µg/mL; in the series on MRSA (ATCC BAA-1556) (value in parentheses (μM)), 27.16 µM. Further, the results for the “MIC, P. aeruginosa (ATCC 27883)” value in series [1] (setting [6]) and in series [1] (value in parentheses (μM)) were 100 µg/mL and 54.31 µM, respectively. The “MIC, K. pneumoniae (ATCCBAA-1705)” value in series [2] (setting [6]) was greater than 100 µg/mL; in series [2] (value in parentheses (μM)), greater than 54.31 µM. Also, the “HC50 (concentration at which 50% hemolysis was observed)” value amounted to 230 µg/mL in series [3] (setting [7]) and 124.92 µM in series [3] (setting [8]). The “tR, RP-HPLC retention time (measure of overall hydrophobicity)” value in series [4] is 30.42 min. For the same substance, in series [5] (CD), the “increase in helicity in the presence of liposomes, as compared to PBS” value was “about 50%”. Further, the “[θ]222 mean residue molar ellipticity, TFE” value in series [5] is -13346 mdeg cm2/(dmol × res). The “[θ]222 mean residue molar ellipticity, Liposomes” value in series [5] is given as -13245 mdeg cm2/(dmol × res). In addition, the “[θ]222 mean residue molar ellipticity, PBS” value in series [5] is given as -6737 mdeg cm2/(dmol × res). In addition, the “Δ[θ]222 induced by TFE” value in series [5] was -6608. The “Δ[θ]222 induced by Liposomes” value in series [5] is -6508. For the same substance, the “% of helicity induced by TFE” value in series [5] was found to be 49.51%. In addition, the “% of helicity induced by Liposomes” value in series [5] was 49.13%.
With Ac-RWLRRWLRWWRR-NH2 [8c], the “MIC, S. aureus (ATCC 29213)” value in the series with S. aureus (ATCC 29213) (setting [6]) was 6.2 µg/mL. Also, the “MIC, S. aureus (ATCC 29213)” value in the series on S. aureus (ATCC 29213) (value in parentheses (μM)) was found to be 3.15 µM. In the series with E. coli (ATCC 25922) (setting [6]), the “MIC, E. coli (ATCC 25922)” value was determined as 12.5 µg/mL. Moreover, the “MIC, E. coli (ATCC 25922)” value in the series with E. coli (ATCC 25922) (value in parentheses (μM)) was 6.35 µM. The “MIC, MRSA (ATCC BAA-1556)” value in the series on MRSA (ATCC BAA-1556) (setting [6]) was determined as 6.2 µg/mL. In addition, the “MIC, MRSA (ATCC BAA-1556)” value with MRSA (ATCC BAA-1556) (value in parentheses (μM)) was 3.15 µM. In addition, in series [1] (setting [6]), the “MIC, P. aeruginosa (ATCC 27883)” value was found to be 12.5 µg/mL. In addition, the “MIC, P. aeruginosa (ATCC 27883)” value in series [1] (value in parentheses (μM)) was 6.35 µM. Also, the “MIC, K. pneumoniae (ATCCBAA-1705)” value in series [2] (setting [6]) worked out at 12.5 µg/mL. Besides, the “MIC, K. pneumoniae (ATCCBAA-1705)” value in series [2] (value in parentheses (μM)) came out at 6.35 µM. For the same substance, in series [3] (setting [7]), the “HC50 (concentration at which 50% hemolysis was observed)” value stood at 30 µg/mL. Also, the “HC50 (concentration at which 50% hemolysis was observed)” value in series [3] (setting [8]) is 15.25 µM. Moreover, the “tR, RP-HPLC retention time (measure of overall hydrophobicity)” value in series [4] is on record as 41.20 min. In series [5], the “[θ]222 mean residue molar ellipticity, TFE” value is -13735 mdeg cm2/(dmol × res); the “[θ]222 mean residue molar ellipticity, Liposomes” value is listed as -19930 mdeg cm2/(dmol × res); the “[θ]222 mean residue molar ellipticity, PBS” value is listed as -8173 mdeg cm2/(dmol × res); the “Δ[θ]222 induced by TFE” value was -5562. Moreover, in series [5], the “Δ[θ]222 induced by Liposomes” value was -11757, the “% of helicity induced by TFE” value amounted to 40.49% and the “% of helicity induced by Liposomes” value was 58.99%.
